Data from the kinase profiling compilation of Christmann-Franck et al. (2016).

How the values were obtained:
Assay in all cases: KINOMEscan competition binding
Settings in all cases: compound 10.0 µM
CLK2 (human) = CLK2 (human) (UniProt P49760)
TNIK (human) = TNIK (human) (UniProt Q9UKE5)
CDK8 (human) = CDK8 (human) (UniProt P49336)
NTRK1 (human) = NTRK1 (human) (UniProt P04629)
PAK4 (human) = PAK4 (human) (UniProt O96013)
CDC2L2 (human) = CDC2L2 (human) (UniProt Q9UQ88)
ADCK3 (human) = ADCK3 (human) (UniProt Q8NI60)
MYO3A (human) = MYO3A (human) (UniProt Q8NEV4)
PLK1 (human) = PLK1 (human) (UniProt P53350)
TLK2 (human) = TLK2 (human) (UniProt Q86UE8)
DDR2 (human) = DDR2 (human) (UniProt Q16832)
TGFBR2 (human) = TGFBR2 (human) (UniProt P37173)
FLT4 (human) = FLT4 (human) (UniProt P35916)
MYO3B (human) = MYO3B (human) (UniProt Q8WXR4)
PRKACB (human) = PRKACB (human) (UniProt P22694)
YES1 (human) = YES1 (human) (UniProt P07947)
STK24 (human) = STK24 (human) (UniProt Q9Y6E0)
MUSK (human) = MUSK (human) (UniProt O15146)
AURKA (human) = AURKA (human) (UniProt O14965)
RIPK4 (human) = RIPK4 (human) (UniProt P57078)
PRKCH (human) = PRKCH (human) (UniProt P24723)
TEC (human) = TEC (human) (UniProt P42680)
FGFR3 (human) = FGFR3 (human) (UniProt P22607)
FER (human) = FER (human) (UniProt P16591)
MYLK3 (human) = MYLK3 (human) (UniProt Q32MK0)
FGFR4 (human) = FGFR4 (human) (UniProt P22455)
MAPK7 (human) = MAPK7 (human) (UniProt Q13164)
BRSK1 (human) = BRSK1 (human) (UniProt Q8TDC3)
SRC (human) = SRC (human) (UniProt P12931)
CDK16 (human) = CDK16 (human) (UniProt Q00536)
MAPK11 (human) = MAPK11 (human) (UniProt Q15759)
STK3 (human) = STK3 (human) (UniProt Q13188)
LATS2 (human) = LATS2 (human) (UniProt Q9NRM7)
PRKACA (human) = PRKACA (human) (UniProt P17612)
CAMK2B (human) = CAMK2B (human) (UniProt Q13554)

Measured: kinase still bound, per cent of control

Sequence of FLT4 (human) (P35916 whole entry, looked up): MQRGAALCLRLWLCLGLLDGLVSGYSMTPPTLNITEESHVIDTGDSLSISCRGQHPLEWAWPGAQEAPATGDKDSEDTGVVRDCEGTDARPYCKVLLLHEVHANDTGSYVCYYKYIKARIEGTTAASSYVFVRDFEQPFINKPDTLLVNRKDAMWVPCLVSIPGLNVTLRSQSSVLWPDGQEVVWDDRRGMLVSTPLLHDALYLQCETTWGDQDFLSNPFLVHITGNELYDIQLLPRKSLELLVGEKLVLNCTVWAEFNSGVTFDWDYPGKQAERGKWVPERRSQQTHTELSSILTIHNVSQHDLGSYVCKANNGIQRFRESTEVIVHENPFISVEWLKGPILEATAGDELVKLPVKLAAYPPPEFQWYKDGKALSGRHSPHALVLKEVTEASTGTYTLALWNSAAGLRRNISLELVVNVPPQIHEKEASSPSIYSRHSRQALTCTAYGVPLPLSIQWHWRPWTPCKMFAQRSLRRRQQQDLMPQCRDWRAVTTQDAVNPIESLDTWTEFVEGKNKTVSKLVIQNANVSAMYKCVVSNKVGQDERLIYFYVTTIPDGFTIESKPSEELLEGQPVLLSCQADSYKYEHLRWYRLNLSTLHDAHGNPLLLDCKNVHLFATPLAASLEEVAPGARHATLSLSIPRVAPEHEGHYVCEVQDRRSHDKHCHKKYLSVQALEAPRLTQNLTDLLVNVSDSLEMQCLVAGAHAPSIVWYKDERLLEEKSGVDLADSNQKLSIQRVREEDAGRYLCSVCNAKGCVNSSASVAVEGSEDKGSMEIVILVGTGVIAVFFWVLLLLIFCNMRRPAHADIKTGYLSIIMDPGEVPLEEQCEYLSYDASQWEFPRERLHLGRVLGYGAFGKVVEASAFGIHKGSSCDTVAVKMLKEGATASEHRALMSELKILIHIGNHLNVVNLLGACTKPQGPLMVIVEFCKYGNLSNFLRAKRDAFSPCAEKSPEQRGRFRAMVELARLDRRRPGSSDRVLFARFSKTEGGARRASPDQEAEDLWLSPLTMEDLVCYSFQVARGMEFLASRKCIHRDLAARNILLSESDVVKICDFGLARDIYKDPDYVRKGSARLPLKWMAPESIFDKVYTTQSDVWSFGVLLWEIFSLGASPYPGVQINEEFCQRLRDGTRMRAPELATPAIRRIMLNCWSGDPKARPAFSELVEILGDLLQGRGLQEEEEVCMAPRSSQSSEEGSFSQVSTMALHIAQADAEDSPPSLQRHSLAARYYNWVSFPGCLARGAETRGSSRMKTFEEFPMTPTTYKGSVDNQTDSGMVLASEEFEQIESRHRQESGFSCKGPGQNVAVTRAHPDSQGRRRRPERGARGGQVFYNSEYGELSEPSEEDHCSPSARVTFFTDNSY
Sequence of CLK2 (human) (P49760 whole entry, looked up): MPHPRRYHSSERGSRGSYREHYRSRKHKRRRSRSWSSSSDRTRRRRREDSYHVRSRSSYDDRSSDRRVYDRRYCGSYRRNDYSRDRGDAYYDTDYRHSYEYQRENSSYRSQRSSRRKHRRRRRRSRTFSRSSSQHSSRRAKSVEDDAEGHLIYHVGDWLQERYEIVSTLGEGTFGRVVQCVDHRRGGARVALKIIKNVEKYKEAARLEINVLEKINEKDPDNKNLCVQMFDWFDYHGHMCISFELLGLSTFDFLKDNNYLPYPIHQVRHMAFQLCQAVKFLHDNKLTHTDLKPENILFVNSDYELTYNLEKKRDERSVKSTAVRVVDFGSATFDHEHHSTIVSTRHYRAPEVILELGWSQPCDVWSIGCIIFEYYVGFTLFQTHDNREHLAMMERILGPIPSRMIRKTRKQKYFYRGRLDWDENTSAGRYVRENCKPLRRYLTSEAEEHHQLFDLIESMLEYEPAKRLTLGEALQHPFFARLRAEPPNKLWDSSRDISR
Sequence of STK24 (human) (Q9Y6E0 whole entry, looked up): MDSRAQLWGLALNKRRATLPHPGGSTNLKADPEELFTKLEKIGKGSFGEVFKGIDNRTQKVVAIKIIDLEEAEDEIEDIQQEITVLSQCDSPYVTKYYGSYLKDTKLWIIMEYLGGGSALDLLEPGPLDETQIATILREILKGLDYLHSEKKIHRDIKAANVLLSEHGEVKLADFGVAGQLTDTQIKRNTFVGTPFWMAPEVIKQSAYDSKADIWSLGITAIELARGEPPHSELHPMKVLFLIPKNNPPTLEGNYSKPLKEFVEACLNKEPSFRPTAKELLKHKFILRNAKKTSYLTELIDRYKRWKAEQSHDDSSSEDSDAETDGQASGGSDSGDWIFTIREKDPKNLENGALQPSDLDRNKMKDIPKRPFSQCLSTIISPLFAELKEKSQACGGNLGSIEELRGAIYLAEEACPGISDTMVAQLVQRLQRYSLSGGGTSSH
Sequence of MAPK11 (human) (Q15759 whole entry, looked up): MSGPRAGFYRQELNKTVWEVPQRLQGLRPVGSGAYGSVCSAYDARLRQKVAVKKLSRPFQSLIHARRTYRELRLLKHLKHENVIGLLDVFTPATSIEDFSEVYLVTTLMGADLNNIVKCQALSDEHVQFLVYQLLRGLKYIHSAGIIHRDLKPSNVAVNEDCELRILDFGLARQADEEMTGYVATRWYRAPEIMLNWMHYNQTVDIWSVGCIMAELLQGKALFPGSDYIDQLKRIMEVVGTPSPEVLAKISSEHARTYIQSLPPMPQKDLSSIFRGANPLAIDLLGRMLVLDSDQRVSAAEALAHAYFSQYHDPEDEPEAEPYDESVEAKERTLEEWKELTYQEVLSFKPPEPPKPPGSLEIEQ
Sequence of MYO3A (human) (Q8NEV4 whole entry, looked up): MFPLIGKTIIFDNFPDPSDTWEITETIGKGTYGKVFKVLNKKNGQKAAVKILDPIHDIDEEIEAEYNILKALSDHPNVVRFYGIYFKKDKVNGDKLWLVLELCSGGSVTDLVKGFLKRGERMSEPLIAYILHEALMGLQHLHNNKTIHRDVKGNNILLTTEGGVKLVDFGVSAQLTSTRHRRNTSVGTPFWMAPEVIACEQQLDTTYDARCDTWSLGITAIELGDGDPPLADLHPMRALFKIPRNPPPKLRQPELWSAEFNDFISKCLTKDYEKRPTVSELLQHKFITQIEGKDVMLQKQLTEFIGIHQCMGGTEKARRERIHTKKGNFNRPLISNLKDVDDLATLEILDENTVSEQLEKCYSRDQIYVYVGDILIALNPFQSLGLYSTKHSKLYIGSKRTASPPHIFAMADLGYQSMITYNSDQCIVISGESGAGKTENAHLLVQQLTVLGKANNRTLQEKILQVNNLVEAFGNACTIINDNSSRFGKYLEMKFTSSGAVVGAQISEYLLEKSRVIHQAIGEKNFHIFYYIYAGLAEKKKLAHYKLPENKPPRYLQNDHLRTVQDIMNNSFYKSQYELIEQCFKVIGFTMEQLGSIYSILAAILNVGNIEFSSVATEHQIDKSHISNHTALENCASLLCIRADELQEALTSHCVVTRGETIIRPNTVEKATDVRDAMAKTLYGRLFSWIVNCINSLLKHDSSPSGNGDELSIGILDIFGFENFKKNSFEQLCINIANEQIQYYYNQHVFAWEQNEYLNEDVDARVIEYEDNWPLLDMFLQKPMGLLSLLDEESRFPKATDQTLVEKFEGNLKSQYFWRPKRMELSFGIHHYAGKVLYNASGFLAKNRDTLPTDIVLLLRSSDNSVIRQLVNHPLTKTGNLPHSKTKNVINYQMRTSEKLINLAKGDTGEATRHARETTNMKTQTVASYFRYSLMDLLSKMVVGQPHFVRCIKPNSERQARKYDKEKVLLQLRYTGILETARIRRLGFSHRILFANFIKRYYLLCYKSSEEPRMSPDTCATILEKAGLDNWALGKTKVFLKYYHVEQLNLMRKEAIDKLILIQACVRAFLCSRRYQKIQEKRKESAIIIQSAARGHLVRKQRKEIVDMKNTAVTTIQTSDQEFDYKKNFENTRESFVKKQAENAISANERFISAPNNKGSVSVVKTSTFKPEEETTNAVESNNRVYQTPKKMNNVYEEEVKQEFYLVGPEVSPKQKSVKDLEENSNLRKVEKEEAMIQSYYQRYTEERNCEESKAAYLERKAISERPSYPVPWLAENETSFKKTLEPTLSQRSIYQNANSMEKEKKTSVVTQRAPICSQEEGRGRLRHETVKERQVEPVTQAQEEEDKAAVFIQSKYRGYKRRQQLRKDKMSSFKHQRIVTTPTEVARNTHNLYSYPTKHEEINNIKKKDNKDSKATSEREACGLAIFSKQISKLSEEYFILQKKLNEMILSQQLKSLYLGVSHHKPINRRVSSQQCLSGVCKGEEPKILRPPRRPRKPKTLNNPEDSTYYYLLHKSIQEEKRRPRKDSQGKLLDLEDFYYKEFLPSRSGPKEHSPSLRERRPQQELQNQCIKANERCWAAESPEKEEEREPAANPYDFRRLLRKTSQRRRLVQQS
Sequence of FGFR3 (human) (P22607 whole entry, looked up): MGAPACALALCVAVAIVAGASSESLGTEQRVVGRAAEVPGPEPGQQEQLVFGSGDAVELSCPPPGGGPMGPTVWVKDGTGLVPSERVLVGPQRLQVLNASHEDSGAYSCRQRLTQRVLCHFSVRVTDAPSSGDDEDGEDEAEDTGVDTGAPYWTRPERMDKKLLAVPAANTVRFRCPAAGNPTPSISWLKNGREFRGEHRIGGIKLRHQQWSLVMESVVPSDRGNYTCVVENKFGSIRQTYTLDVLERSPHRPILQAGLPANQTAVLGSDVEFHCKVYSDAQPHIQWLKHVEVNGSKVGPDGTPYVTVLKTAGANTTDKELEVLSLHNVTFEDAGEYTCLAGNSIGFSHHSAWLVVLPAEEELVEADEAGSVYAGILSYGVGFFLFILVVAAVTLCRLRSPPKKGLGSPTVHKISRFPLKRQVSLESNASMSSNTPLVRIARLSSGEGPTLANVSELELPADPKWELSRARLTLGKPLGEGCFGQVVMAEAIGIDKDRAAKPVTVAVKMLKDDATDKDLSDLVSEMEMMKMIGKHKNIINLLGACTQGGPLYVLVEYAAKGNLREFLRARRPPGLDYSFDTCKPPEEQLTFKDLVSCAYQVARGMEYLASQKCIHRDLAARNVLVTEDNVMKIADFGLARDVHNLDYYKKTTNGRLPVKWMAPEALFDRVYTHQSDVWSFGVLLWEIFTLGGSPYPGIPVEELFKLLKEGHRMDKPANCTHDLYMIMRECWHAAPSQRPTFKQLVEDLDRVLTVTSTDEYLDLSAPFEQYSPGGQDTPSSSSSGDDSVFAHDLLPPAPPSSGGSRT

Cc1n[nH]c2ccc(-c3cncc(OC[C@@H](N)Cc4c[nH]c5ccccc45)c3)cc12
13%: PAK4 (human)
0%: LATS2 (human)
9.6%: CDK8 (human)
3.2%: TNIK (human)
16%: CDK16 (human)
0.85%: PRKACA (human)
1.4%: PRKCH (human)
0.05%: CLK2 (human)
0.45%: PRKACB (human)
0.35%: STK3 (human)
2.8%: MYLK3 (human)
not listed: CAMK2B (human)
100%: all other assays above

CNC(=O)c1ccc(Nc2cc(Nc3ccccc3S(=O)(=O)C(C)C)c3cc[nH]c3n2)nc1
2.7%: AURKA (human)
19%: TNIK (human) | PLK1 (human)
1.1%: FER (human)
29%: FLT4 (human)
4.7%: CLK2 (human)
18%: PAK4 (human) | FGFR3 (human)
0.75%: NTRK1 (human)
0.2%: STK3 (human)
22%: CDK16 (human)
0.25%: SRC (human)
1.6%: YES1 (human)
13%: PRKACB (human)
2.6%: TEC (human)
0.95%: MUSK (human)
100%: all other assays above

CCN(CC)CCCCNc1ncc2cc(-c3cc(OC)cc(OC)c3)c(NC(=O)NC(C)(C)C)nc2n1
7%: STK24 (human)
36%: MAPK7 (human)
6%: FLT4 (human)
0.05%: FGFR3 (human)
not listed: RIPK4 (human) | FGFR4 (human)
100%: all other assays above
